System: Silverleaf Whitefly (Bemisia argentifolii)
Experiment: Insecticidal test against silverleaf whitefly on cabbage seedlings (spray)
Assay type: in vivo
Conditions: spray on infested cabbage seedlings, total of adults and larvae, 9 days after treatment
Source text: Insecticidal Test Against Silverleaf Whitefly (Bemisia argentifolii)
To each of an aqueous dilution in a designated concentration of an emulsifiable concentrate of Compound A (commercial name: Lano EC, manufactured by Sumitomo Chemical Co., Ltd.) and a flowable of Compound B (commercial name: Sanmite flowable, manufactured by Nissan Chemical Industries, Ltd.), and a mixture of the emulsifiable concentrate of Compound A in a designated concentration with the flowable of Compound B in a designated concentration, a spreading agent (Shin-Rino, manufactured by Nihon Nohyaku Co., Ltd.) was added to make the amount of the spreading agent to 1/3000 of volume to prepare a spray solution.
Cabbage seedlings planted in 3 ounces plastic cup were placed in a net cage containing many living silverleaf whiteflies for 24 hours, so that silverleaf whiteflies became parasitic on the cabbage seedlings. Each of the above-prepared test solutions was sprayed with a spray gun. The number of silverleaf whiteflies (i.e., the total number of adults and larvae) surviving on the cabbage seedlings was examined just before and after 9 days from the treatment.

SMILES: CC(COc1ccc(Oc2ccccc2)cc1)Oc1ccccn1 (stereo not shown) [Compound A, 4-phenoxyphenyl 2-(2-pyridyloxy)propyl ether]
- Number of surviving insects after 9 days (50 ppm active ingredient): 30

SMILES: CC(C)(C)c1ccc(CSc2cnn(C(C)(C)C)c(=O)c2Cl)cc1 [Compound B, 2-tert-butyl-5-(4-tert-butylbenzylthio)-4-chloropyridazin-3(2H)-one]
- Number of surviving insects after 9 days (12.5 ppm active ingredient): 155
- Number of surviving insects after 9 days (50 ppm active ingredient): 10
- Number of surviving insects after 9 days (100 ppm active ingredient): 13

Source: patent US6905699B2, “Insecticides” (Sumitomo Chemical Company, Limited, priority 2000, dated 2005)
